The values that follow come from ChEMBL document CHEMBL1159013, “Additional bioactive compounds and trilobacin, a novel highly cytotoxic acetogenin, from the bark of Asimina triloba” (J Nat Prod, 1992).

The structures appear in SMILES notation. Converted amounts (≈) assume the structure as drawn.

Series [1] relates to HT-29. Kind of series: Cytotoxicity against human HT-29 cells after 7 days. The series is classed as functional. The note with it: for EC50: Homo sapiens, HT-29, 168 h, read-out: ED50 (the source's name).
A short description of series [2]: Toxicity against brine shrimp larvae. It is filed as organism-based. The note with it: artemia, in vivo.
Series [3] relates to A549. Kind of series: Cytotoxicity against human A549 cells after 7 days. It is filed as functional. The note with it: for EC50: Homo sapiens, A549, 168 h, read-out: ED50 (the source's name).
In series [4] the test system is MCF7. Kind of series: Cytotoxicity against human MCF7 cells after 7 days. It is filed as functional. The note with it: MCF7, 168 h, read-out: ED50 (the source's name).
For series [5], the system named is SF-539. Put plainly: Growth inhibition of human SF539 cells after 3 days. It is filed as functional. The note with it: SF-539, 72 h.
Series [6] has as its system EKVX. Kind of series: Growth inhibition of human EKVX cells after 3 days. The series is classed as functional. The note with it: 72 h.
Series [7] concerns Malme-3M. Kind of series: Growth inhibition of human MALME-3M cells after 3 days. The series is classed as functional. The note with it: 72 h.
Series [8] concerns SNB-78. Put plainly: Growth inhibition of human SNB78 cells after 3 days. It is filed as functional. The note with it: SNB-78, 72 h.
The subject of series [9] is HT-29. Kind of series: Growth inhibition of human HT-29 cells after 3 days. It is filed as functional. The note with it: HT-29, 72 h.
Series [10] deals with SR. Kind of series: Growth inhibition of human SR cells after 3 days. It is filed as functional. The note with it: 72 h.
Series [11] has as its system U-251. Put plainly: Growth inhibition of human U251 cells after 3 days. The series is classed as functional. The note with it: U-251, 72 h.
The subject of series [12] is OVCAR-8. Kind of series: Growth inhibition of human OVCAR8 cells after 3 days. The note with it: OVCAR-8, 72 h. The series is classed as functional.
The test system of series [13] is A498. Kind of series: Growth inhibition of human A498 cells after 3 days. The note with it: A498, 72 h. It is filed as functional.
In series [14] the test system is HOP-62. Kind of series: Growth inhibition of human HOP62 cells after 3 days. The note with it: HOP-62, 72 h. It is filed as functional.
Series [15] relates to DMS-273. Kind of series: Growth inhibition of human DMS273 cells after 3 days. The note with it: DMS-273, 72 h. It is filed as functional.
Series [16] has as its system NCI-H322M. Kind of series: Growth inhibition of human NCI-H322M cells after 3 days. It is filed as functional. The note with it: 72 h.
Series [17] relates to M19-MEL. Kind of series: Growth inhibition of human M19-MEL cells after 3 days. The series is classed as functional. The note with it: 72 h.
Series [18] concerns HOP-92. Put plainly: Growth inhibition of human HOP92 cells after 3 days. The note with it: HOP-92, 72 h. The series is classed as functional.
Series [19] relates to IGROV-1. Put plainly: Growth inhibition of human IGROV1 cells after 3 days. The series is classed as functional. The note with it: IGROV-1, 72 h.
In series [20] the test system is NCI-H460. Put plainly: Growth inhibition of human NCI-H460 cells after 3 days. It is filed as functional. The note with it: NCI-H460, 72 h.
Series [21] concerns CCRF-CEM. Kind of series: Growth inhibition of human CCRF-CEM cells after 3 days. The series is classed as functional. The note with it: 72 h.
The test system of series [22] is SN12C. Kind of series: Growth inhibition of human SN12C cells after 3 days. It is filed as functional. The note with it: 72 h.
In series [23] the test system is HCC 2998. Put plainly: Growth inhibition of human HCC2998 cells after 3 days. The series is classed as functional. The note with it: HCC 2998, 72 h.
The test system of series [24] is SK-MEL-2. Put plainly: Growth inhibition of human SK-MEL-2 cells after 3 days. The series is classed as functional. The note with it: SK-MEL-2, 72 h.
The test system of series [25] is TK-10. Kind of series: Growth inhibition of human TK10 cells after 3 days. The series is classed as functional. The note with it: TK-10, 72 h.
Series [26] deals with OVCAR-3. Put plainly: Growth inhibition of human OVCAR-3 cells after 3 days. The note with it: OVCAR-3, 72 h. The series is classed as functional.
The test system of series [27] is LOX IMVI. Kind of series: Growth inhibition of human LOXIMVI cells after 3 days. It is filed as functional. The note with it: 72 h.
Series [28] deals with M14. Kind of series: Growth inhibition of human M14 cells after 3 days. The note with it: M14, 72 h. It is filed as functional.
Series [29] relates to 786-0. Kind of series: Growth inhibition of human 786-0 cells after 3 days. The series is classed as functional. The note with it: 786-0, 72 h.
For series [30], the system named is CAKI-1. Put plainly: Growth inhibition of human Caki1 cells after 3 days. The series is classed as functional. The note with it: CAKI-1, 72 h.
Series [31] has as its system COLO 205. Kind of series: Growth inhibition of human COLO205 cells after 3 days. It is filed as functional. The note with it: COLO 205, 72 h.
In series [32] the test system is KM-20L2. Put plainly: Growth inhibition of human KM20L2 cells after 3 days. It is filed as functional. The note with it: KM-20L2, 72 h.
The test system of series [33] is OVCAR-5. Put plainly: Growth inhibition of human OVCAR5 cells after 3 days. The note with it: OVCAR-5, 72 h. It is filed as functional.
Series [34] relates to MOLT-4. Kind of series: Growth inhibition of human MOLT4 cells after 3 days. It is filed as functional. The note with it: MOLT-4, 72 h.
Series [35] in a line: Growth inhibition of human RXF631 cells after 3 days. It is filed as functional. The note with it: RXF 631, 72 h.
Series [36] relates to SK-MEL-28. Put plainly: Growth inhibition of human SK-MEL-28 cells after 3 days. It is filed as functional. The note with it: SK-MEL-28, 72 h.
Series [37] relates to SW-620. Kind of series: Growth inhibition of human SW620 cells after 3 days. The series is classed as functional. The note with it: SW-620, 72 h.
Series [38] has as its system SNB-75. Kind of series: Growth inhibition of human SNB75 cells after 3 days. The series is classed as functional. The note with it: SNB-75, 72 h.
The test system of series [39] is DLD-1. Kind of series: Growth inhibition of human DLD1 cells after 3 days. It is filed as functional. The note with it: DLD-1, 72 h.
The nature of series [40]: Growth inhibition of human LXFL529 cells after 3 days. The series is classed as functional. The note with it: LXFL 529, 72 h.
Series [41] concerns UACC-62. Kind of series: Growth inhibition of human UACC62 cells after 3 days. The note with it: UACC-62, 72 h. It is filed as functional.
The test system of series [42] is XF498. Put plainly: Growth inhibition of human XF498 cells after 3 days. The note with it: XF498, 72 h. It is filed as functional.
The test system of series [43] is A549. Kind of series: Growth inhibition of human A549 cells after 3 days. The note with it: A549, 72 h. It is filed as functional.
For series [44], the system named is SF-268. Put plainly: Growth inhibition of human SF268 cells after 3 days. The series is classed as functional. The note with it: SF-268, 72 h.
Series [45] deals with SK-OV-3. Kind of series: Growth inhibition of human SKOV3 cells after 3 days. It is filed as functional. The note with it: SK-OV-3, 72 h.

A word on the LC50: it is the concentration that kills 50% of the test population. Read a low LC50 as greater toxicity. As for `COc1cc(/C=C/C(=O)NCCc2ccc(O)cc2)ccc1O` [N-TRANS-FERULOYL TYRAMINE], the figures for the EC50 in [1], in series [3] and in [4] were 23.6 µg/mL (≈ 75300 nM), 13.3 µg/mL (≈ 42600 nM) and 4.76 µg/mL (≈ 15200 nM), respectively. This molecule also returned an LC50 in series [2] of 6.7 µg/mL (≈ 21400 nM).

For `COc1cc([C@H]2OC[C@H]3[C@@H]2CO[C@@H]3c2cc(OC)c(O)c(OC)c2)cc(OC)c1O` [SYRINGARESINOL], the results for the EC50 in [1], in series [3] and in [4] were 15.5 µg/mL (≈ 37000 nM), 14.9 µg/mL (≈ 35600 nM) and 3.69 µg/mL (≈ 8820 nM), respectively. The LC50 in series [2] stood at 13.6 µg/mL (≈ 32500 nM).

For the molecule `O=C(/C=C/c1ccc(O)cc1)NCCc1ccc(O)cc1` [N-P-COUMAROYL TYRAMINE], the EC50 is 0.674 µg/mL (≈ 2380 nM) in [1], 3.24 µg/mL (≈ 11400 nM) in series [3] and 0.716 µg/mL (≈ 2530 nM) in series [4]. Further, the LC50 in series [2] stood at 6.7 µg/mL (≈ 23600 nM).

A word on the GI50: it is the concentration at which growth is held to half of that of the control. Low values mean more potent growth inhibition, high ones less potent growth inhibition. As to `CCCCCCCCCC[C@@H](O)[C@H]1CC[C@@H]([C@H]2CC[C@H]([C@H](O)CCCCCCCCCC[C@@H](O)CC3=C[C@H](C)OC3=O)O2)O1` [TRILOBACIN], the GI50 in [5] came to 0.00138 ng/mL (≈ 0.00222 nM); in [6], 0.002 ng/mL (≈ 0.00321 nM); in [7], 0.00144 ng/mL (≈ 0.00231 nM); in [8] it was 2.05 µM; in series [9], 0.00216 ng/mL (≈ 0.00347 nM); in series [10], 1.09 µM. The GI50 turned out to be 4.33 µM in [11]; 0.00293 ng/mL (≈ 0.0047 nM) in [12]; 0.00686 ng/mL (≈ 0.011 nM) in series [13]; 0.00234 ng/mL (≈ 0.00376 nM) in series [14]; 0.00177 ng/mL (≈ 0.00284 nM) in [15]; 4.06 µM in series [16]. The GI50 in series [17] turned out to be 0.00263 ng/mL (≈ 0.00422 nM); in [18], 0.00276 ng/mL (≈ 0.00443 nM); in series [19] it was 0.00481 ng/mL (≈ 0.00772 nM); in [20], 0.00293 ng/mL (≈ 0.0047 nM); in series [21] it was 0.0017 ng/mL (≈ 0.00273 nM); in series [22] it was 1.64 µM. Moreover, the GI50 in [23] was determined as 0.00292 ng/mL (≈ 0.00469 nM); in [24], 0.00228 ng/mL (≈ 0.00366 nM); in series [25], 7 µM; in [26], 0.00109 ng/mL (≈ 0.00175 nM); in series [27], 0.0012 ng/mL (≈ 0.00193 nM); in [28], 0.0104 ng/mL (≈ 0.0167 nM). In addition, the GI50 in series [29] is 0.0022 ng/mL (≈ 0.00353 nM); in [30] it was 0.00883 ng/mL (≈ 0.0142 nM); in [31] it was 0.00349 ng/mL (≈ 0.0056 nM); in series [32] it was 0.00375 ng/mL (≈ 0.00602 nM); in series [33], 4.33 µM; in [34], 0.00116 ng/mL (≈ 0.00186 nM). Further, the GI50 came to 1.8 µM in [35]; 0.00201 ng/mL (≈ 0.00323 nM) in series [36]; 2.64 µM in series [37]; 0.00319 ng/mL (≈ 0.00512 nM) in [38]; 0.0027 ng/mL (≈ 0.00433 nM) in series [39]; 0.00217 ng/mL (≈ 0.00348 nM) in series [40]. Besides, the GI50 came to 2.67 µM in [41]; 0.00203 ng/mL (≈ 0.00326 nM) in series [42]; 0.00164 ng/mL (≈ 0.00263 nM) in series [43]; 1.7 µM in [44]; 8.2 µM in series [45]. Further, the ED50 in series [1] was less than 1 ×10⁻¹⁵ ug/ml; in [3], 8.02 ×10⁻⁴ ug/ml. Besides, the LC50 in series [2] amounted to 0.0087 µg/mL (≈ 14 nM). The EC50 in series [4] was 0.329 µg/mL (≈ 528 nM).
